# According to patent US7183312B2, “Taxanes having a C7 heterosubstituted acetate substituent” (FSU Research Foundation, Inc., priority 2000, dated 2007):
# System: HCT116
# Assay: In vitro cytotoxicity measured by the cell colony formation assay
# Format: cell-based
# Conditions: HCT116 cells; incubated with drugs for 72 h at 37° C.; colonies counted after 7 days; ID50 = drug concentration producing 50% inhibition of colony formation; read-out: IN VITRO ID 50 (nm) HCT116
# Method: In Vitro Cytotoxicity Measured by the Cell Colony Formation Assay
# Four hundred cells (HCT116) were plated in 60 mm Petri dishes containing 2.7 mL of medium (modified McCoy's 5a medium containing 10% fetal bovine serum and 100 units/mL penicillin and 100 µg/mL streptomycin). The cells were incubated in a CO2 incubator at 37° C. for 5 h for attachment to the bottom of Petri dishes. The compounds identified in Example 2 were made up fresh in medium at ten times the final concentration, and then 0.3 mL of this stock solution was added to the 2.7 mL of medium in the dish. The cells were then incubated with drugs for 72 h at 37° C. At the end of incubation the drug-containing media were decanted, the dishes were rinsed with 4 mL of Hank's Balance Salt Solution (HBSS), 5 mL of fresh medium was added, and the dishes were returned to the incubator for colony formation. The cell colonies were counted using a colony counter after incubation for 7 days.
row,SMILES,IC50
1,CSCC(=O)O[C@H]1C[C@H]2OC[C@@]2(OC(C)=O)C2[C@H](OC(=O)c3ccccc3)[C@]3(O)C[C@H](OC(=O)[C@H](O)[C@@H](NC(=O)OC(C)(C)C)c4ccco4)C(C)=C([C@@H](O)C(=O)[C@@]21C)C3(C)C (some centres unmarked) [Compound 5600],< 1 nM
2,CCC(C)(C)OC(=O)N[C@@H](c1ccco1)[C@@H](O)C(=O)O[C@H]1C[C@@]2(O)[C@@H](OC(=O)c3ccccc3)C3[C@](C)(C(=O)[C@H](O)C(=C1C)C2(C)C)[C@@H](OC(=O)COC(C)=O)C[C@H]1OC[C@@]31OC(C)=O (some centres unmarked) [Compound 6353],< 1 nM
3,CC(=O)O[C@@]12CO[C@@H]1C[C@H](OC(=O)COc1ccccc1)[C@@]1(C)C(=O)[C@H](O)C3=C(C)[C@@H](OC(=O)[C@H](O)[C@@H](NC(=O)C=C(C)C)c4ccco4)C[C@@](O)([C@@H](OC(=O)c4ccccc4)C12)C3(C)C (some centres unmarked) [Compound 5555],< 1 nM
4,CC(=O)OCC(=O)O[C@H]1C[C@H]2OC[C@@]2(OC(C)=O)C2[C@H](OC(=O)c3ccccc3)[C@]3(O)C[C@H](OC(=O)[C@H](O)[C@@H](NC(=O)C=C(C)C)c4ccco4)C(C)=C([C@@H](O)C(=O)[C@@]21C)C3(C)C (some centres unmarked) [Compound 5544],< 1 nM
5,COCC(=O)O[C@H]1C[C@H]2OC[C@@]2(OC(C)=O)C2[C@H](OC(=O)c3ccccc3)[C@]3(O)C[C@H](OC(=O)[C@H](O)[C@@H](NC(=O)OC(C)(C)C)c4ccco4)C(C)=C([C@@H](O)C(=O)[C@@]21C)C3(C)C (some centres unmarked) [Compound 5445],< 1 nM
6,C/C=C/C(=O)N[C@@H](c1ccco1)[C@@H](O)C(=O)O[C@H]1C[C@@]2(O)[C@@H](OC(=O)c3ccccc3)C3[C@](C)(C(=O)[C@H](O)C(=C1C)C2(C)C)[C@@H](OC(=O)COC)C[C@H]1OC[C@@]31OC(C)=O (some centres unmarked) [Compound 5835],< 1 nM
7,C/C=C/C(=O)N[C@@H](c1ccco1)[C@@H](O)C(=O)O[C@H]1C[C@@]2(O)[C@@H](OC(=O)c3ccccc3)C3[C@](C)(C(=O)[C@H](O)C(=C1C)C2(C)C)[C@@H](OC(=O)COc1ccccc1)C[C@H]1OC[C@@]31OC(C)=O (some centres unmarked) [Compound 5811],< 1 nM
8,CC(=O)O[C@@]12CO[C@@H]1C[C@H](OC(=O)COc1ccccc1)[C@@]1(C)C(=O)[C@H](O)C3=C(C)[C@@H](OC(=O)[C@H](O)[C@@H](NC(=O)OC(C)(C)C)c4ccco4)C[C@@](O)([C@@H](OC(=O)c4ccccc4)C12)C3(C)C (some centres unmarked) [Compound 5616],< 1 nM
9,"CCC(C)(C)OC(=O)NC(c1ccco1)C(O)C(=O)OC1CC2(O)C(OC(=O)c3ccccc3)C3C4(OC(C)=O)COC4CC(OC(=O)COC)C3(C)C(=O)C(O)C(=C1C)C2(C)C (centres unmarked) [Compound 6226, N-Debenzoyl-N-tert-amyloxycarbonyl-3′-desphenyl-3′-(2-furyl)-10-deacetyl-7-methoxyacetyl taxol]",< 1 nM
10,CC(=O)OCC(=O)O[C@H]1C[C@H]2OC[C@@]2(OC(C)=O)C2[C@H](OC(=O)c3ccccc3)[C@]3(O)C[C@H](OC(=O)[C@H](O)[C@@H](NC(=O)OC(C)(C)C)c4ccco4)C(C)=C([C@@H](O)C(=O)[C@@]21C)C3(C)C (some centres unmarked) [Compound 5622],< 1 nM
11,COCC(=O)O[C@H]1C[C@H]2OC[C@@]2(OC(C)=O)C2[C@H](OC(=O)c3ccccc3)[C@]3(O)C[C@H](OC(=O)[C@H](O)[C@@H](NC(=O)C=C(C)C)c4ccco4)C(C)=C([C@@H](O)C(=O)[C@@]21C)C3(C)C (some centres unmarked) [Compound 5474],< 1 nM
